According to patent US8426202B2, “Cell culture medium” (Cellca GmbH, priority 2005, dated 2013):
Several values for one entry are separate records, joined by “and”; a condition that tells them apart may be missing. Equal values may be shown once. Read-outs that look alike come from different tables or passages of the source.

Key:
[1] = tested on: CHO cell line that expresses an antibody; assay: Batch experiment with the substances according to the invention (Example 1); assay type: cell-based, Chinese hamster; conditions: batch mode, substance 0.5-1 g/l, basal medium glucose 4.7 g/l, glutamine […]
Description: Cells were stored in the gas phase of liquid nitrogen. One to two ampoules were thawed in nutrient medium preheated to 37° C. and transferred to spinner bottles, shaking flasks or T-bottles. In the first few days of cultivation the medium was changed, depending on the clone.
Depending on the clone, cells were split either every second day or every third day or after two and three days alternately into new medium, i.e. a portion of the cell suspension was removed from culture and a smaller portion of the cell suspension was reused as inoculum for the next culture. This inoculum was made up with fresh prewarmed nutrient medium. Cells were incubated at 37° C. in an incubator with a CO2 atmosphere. An alternative for incubating cells was cultivation in an incubation chamber at 37° C., in this way cells were held in culture for several passages. A passage means a cultivation time of two to three days. At various points of time, cell suspension was taken from strain maintenance and used as inoculum for experiments. The experiments were carried out in various cultivation systems, for example in spinner bottles, T-bottles, shaking flasks, culture tubes or in controlled bioreactors.
(§1) Feed took place at regular intervals.

[2] = tested on: CHO cell line that expresses an antibody; assay: Fed-batch experiment with the substances according to the invention (Example 2, Table 2); assay type: cell-based, Chinese hamster; set-up: Viabil.: concentration or dose not given beside the values
Excerpt: as §1

[3] = tested on: CHO cell line that expresses an antibody; conditions: fed-batch; substance 1 g/l; supernatant, ELISA; absolute value of the control set at 100%
Description: A CHO cell line that expresses an antibody was used for the experiments. The product concentration (antibody concentration) in the cell supernatant was determined by ELISA.
From selected samples, the product concentration (antibody concentration) in the supernatant was determined by ELISA (Table 3)

[4] = tested on: CHO cell line that expresses an antibody; conditions: fed-batch, glutamine-free basal and feed media, substance 0.5-1 g/l
Description: (§2) A CHO cell line that expresses an antibody was used for the experiments.
This is a serum-free, protein-free nutrient medium. It is a ready-made, sterile-filtered nutrient medium.
After 1-4 days the cells were supplemented with a feed medium, i.e. the process was switched to fed-batch mode. Feed took place at regular intervals. In fed-batch experiments, a protein-free and serum-free feed medium from the company HyQ (R05.2 supplement, Cat. No.: SH30584.04, Lot No.: APF21457G) was used.
All substances (chemicals) used according to the invention were obtained from the company Sigma and stock solutions were prepared from them. From the stock solutions, the substances were put at the desired final concentration in culture tubes. The various culture tubes prepared in this way were finally inoculated with the antibody-producing CHO-clone at a target inoculation cell concentration (1-3×10^5/ml). For this, the corresponding amount of inoculum cells was calculated and the required amount of inoculum cell suspension was centrifuged. […] In this way the desired inoculation cell concentration was adjusted in the cell suspension being investigated. The cell suspension thus prepared was proportioned in the culture tubes, which were provided with the substances according to the invention beforehand. The culture tubes were incubated at 37° C., and 8% CO2 atmosphere, with shaking. The culture tubes were cultivated for 8-11 days in the batch mode or in the fed-batch mode. Samples for offline measurement of the variables were taken from the culture vessels at regular intervals, for example daily or on every third day. The metabolic variables and cell concentrations of the samples were measured. Cell concentration and cell vitality were measured with a CeDex instrument. The metabolic variables (glucose, lactate, glutamine and ammonium) were determined with an analyzer (BioProfile 100).
(§3) The following final concentrations of the substances according to the invention were established in a nutrient medium after inoculation:
The substances according to the invention were tested under fed-batch conditions. […] The feed medium used was from the company HyQ (R05.2 supplement, Cat. No.: SH30584.04, Lot No.: APF21457G). The feed medium was glutamine-free (Table 4).

[5] = tested on: CHO cell line that expresses an antibody; conditions: fed-batch, basal medium 4 mM glutamine, feed with 3 g/l Ala-Gln and 3 g/l Gly-Gln, substance 0.5-1 g/l
Description: as §2
The experiments were carried out either in batch mode or in fed-batch mode. When the process was carried out in fed-batch mode, the process was first started in batch mode in the above-mentioned basal medium and cells were cultivated in this manner for 1-4 days. After 1-4 days the cells were supplemented with a feed medium, i.e. the process was switched to fed-batch mode. Feed took place at regular intervals. In fed-batch experiments, a protein-free and serum-free feed medium from the company HyQ (R05.2 supplement, Cat. No.: SH30584.04, Lot No.: APF21457G) was used.
From the stock solutions, the substances were put at the desired final concentration in culture tubes. The various culture tubes prepared in this way were finally inoculated with the antibody-producing CHO-clone at a target inoculation cell concentration (1-3×10^5/ml). For this, the corresponding amount of inoculum cells was calculated and the required amount of inoculum cell suspension was centrifuged. […] In this way the desired inoculation cell concentration was adjusted in the cell suspension being investigated. The cell suspension thus prepared was proportioned in the culture tubes, which were provided with the substances according to the invention beforehand. The culture tubes were incubated at 37° C., and 8% CO2 atmosphere, with shaking. The culture tubes were cultivated for 8-11 days in the batch mode or in the fed-batch mode. Samples for offline measurement of the variables were taken from the culture vessels at regular intervals, for example daily or on every third day. The metabolic variables and cell concentrations of the samples were measured. Cell concentration and cell vitality were measured with a CeDex instrument. The metabolic variables (glucose, lactate, glutamine and ammonium) were determined with an analyzer (BioProfile 100).
as §3
The substances according to the invention were tested under fed-batch conditions. […] The feed medium used was from the company HyQ (R05.2 supplement, Cat. No.: SH30584.04, Lot No.: APF21457G). 3 g/l alanyl-glutamine (Ala-Gin) and 3 g/l glycyl-glutamine (Gly-Gln) were added to the feed medium.

SMILES: CC(O)C(=O)[O-].[Na+] (centres unmarked) [Sodium lactate]
- Gln ([1]; day 0): 1.53 mM
- Glucose ([1]; day 0): 4.69 g/L
- Lactate ([1]; day 0): 1 g/L
- NH4 ([1]; day 0): 1.22 mM
- Specific Glutamin consumption (Gln/VCD) ([1]; day 0): 1.49
- Specific ammonia production (NH4/VCD) ([1]; day 0): 1.18
- Specific glucose consumption (Gluc/VCD) ([1]; day 0): 4.55
- Specific lactate production (Lac/VCD) ([1]; day 0): 0.97
- Total Cell Density TCD ([1]; day 0): 1.07 E5/ml
- Viabil. ([1]; day 0): 96%
- Viable Cell Density (VCD) ([1]; day 0): 1.03 E5/ml
- Gln ([1]; day 3): 1.12 mM
- Glucose ([1]; day 3): 4.44 g/L
- Lactate ([1]; day 3): 1.15 g/L
- NH4 ([1]; day 3): 1.65 mM
- Specific Glutamin consumption (Gln/VCD) ([1]; day 3): 0.19
- Specific ammonia production (NH4/VCD) ([1]; day 3): 0.28
- Specific glucose consumption (Gluc/VCD) ([1]; day 3): 0.74
- Specific lactate production (Lac/VCD) ([1]; day 3): 0.19
- Total Cell Density TCD ([1]; day 3): 6 E5/ml
- Viabil. ([1]; day 3): 100%
- Viable Cell Density (VCD) ([1]; day 3): 6 E5/ml
- Gln ([1]; day 6): 0.31 mM
- Glucose ([1]; day 6): 2.82 g/L
- Lactate ([1]; day 6): 1.49 g/L
- NH4 ([1]; day 6): 2.07 mM
- Specific Glutamin consumption (Gln/VCD) ([1]; day 6): 0.01
- Specific ammonia production (NH4/VCD) ([1]; day 6): 0.05
- Specific glucose consumption (Gluc/VCD) ([1]; day 6): 0.07
- Specific lactate production (Lac/VCD) ([1]; day 6): 0.04
- Total Cell Density TCD ([1]; day 6): 41 E5/ml
- Viabil. ([1]; day 6): 99%
- Viable Cell Density (VCD) ([1]; day 6): 40.6 E5/ml
- Gln ([1]; day 8): 0.35 mM
- Glucose ([1]; day 8): 1.79 g/L
- Lactate ([1]; day 8): 1.47 g/L
- NH4 ([1]; day 8): 2.63 mM
- Specific Glutamin consumption (Gln/VCD) ([1]; day 8): 0.02
- Specific ammonia production (NH4/VCD) ([1]; day 8): 0.12
- Specific glucose consumption (Gluc/VCD) ([1]; day 8): 0.08
- Specific lactate production (Lac/VCD) ([1]; day 8): 0.07
- Total Cell Density TCD ([1]; day 8): 23.7 E5/ml
- Viabil. ([1]; day 8): 90%
- Viable Cell Density (VCD) ([1]; day 8): 21.3 E5/ml
- Gln ([1]; day 11): 0.5 mM
- Glucose ([1]; day 11): 0.55 g/L
- Lactate ([1]; day 11): 1.04 g/L
- NH4 ([1]; day 11): 3.12 mM
- Specific Glutamin consumption (Gln/VCD) ([1]; day 11): 0.04
- Specific ammonia production (NH4/VCD) ([1]; day 11): 0.27
- Specific glucose consumption (Gluc/VCD) ([1]; day 11): 0.05
- Specific lactate production (Lac/VCD) ([1]; day 11): 0.09
- Total Cell Density TCD ([1]; day 11): 24.5 E5/ml
- Viabil. ([1]; day 11): 47%
- Viable Cell Density (VCD) ([1]; day 11): 11.4 E5/ml
- Total Cell Density TCD ([2]; day 0, fed-batch): 1.5 E5/ml
- Viabil. ([2]; day 0, fed-batch): 91%
- Viable Cell Density (VCD) ([2]; day 0, fed-batch): 1.37 E5/ml
- Total Cell Density TCD ([2]; day 2, fed-batch): 4.6 E5/ml and 4 E5/ml
- Viabil. ([2]; day 2, fed-batch): 98% and 95%
- Viable Cell Density (VCD) ([2]; day 2, fed-batch): 4.5 E5/ml and 3.8 E5/ml
- Total Cell Density TCD ([2]; day 5, fed-batch): 13.1 E5/ml and 14.3 E5/ml
- Viabil. ([2]; day 5, fed-batch): 98%
- Viable Cell Density (VCD) ([2]; day 5, fed-batch): 12.8 E5/ml and 14 E5/ml
- Total Cell Density TCD ([2]; day 8, fed-batch): 52.4 E5/ml and 54.7 E5/ml
- Viabil. ([2]; day 8, fed-batch): 96% and 95%
- Viable Cell Density (VCD) ([2]; day 8, fed-batch): 50.2 E5/ml and 52 E5/ml
- Antibody concentration [3]: 124%
- Sp. Gluc cons. ([4]; day 0): 93
- Sp. NH4 prod ([4]; day 0): 98 % of control
- TCD ([4]; day 0): 100 % of control
- VCD ([4]; day 0): 100 % of control
- Viabil. ([4]; day 0): 94%
- Sp. Gluc cons. ([4]; day 3): 66
- Sp. Lactate prod. ([4]; day 3): 72 % of control
- Sp. NH4 prod ([4]; day 3): 63 % of control
- TCD ([4]; day 3): 140 % of control
- VCD ([4]; day 3): 148 % of control
- Viabil. ([4]; day 3): 94%
- Sp. Gluc cons. ([4]; day 5): 74
- Sp. Lactate prod. ([4]; day 5): 66 % of control
- Sp. NH4 prod ([4]; day 5): 72 % of control
- TCD ([4]; day 5): 128 % of control
- VCD ([4]; day 5): 136 % of control
- Viabil. ([4]; day 5): 97%
- Sp. Gluc cons. ([4]; day 7): 62
- Sp. Lactate prod. ([4]; day 7): 57 % of control
- Sp. NH4 prod ([4]; day 7): 66 % of control
- TCD ([4]; day 7): 136 % of control
- VCD ([4]; day 7): 147 % of control
- Viabil. ([4]; day 7): 95%
- Sp. Gluc cons. ([4]; day 9): 71
- Sp. Lactate prod. ([4]; day 9): 65 % of control
- Sp. NH4 prod ([4]; day 9): 73 % of control
- TCD ([4]; day 9): 131 % of control
- VCD ([4]; day 9): 133 % of control
- Viabil. ([4]; day 9): 95%
- Total Cell Density TCD ([5]; day 0): 1.1 E5/ml
- Viabil. ([5]; day 0): 96%
- Viable Cell Density (VCD) ([5]; day 0): 1.0 E5/ml
- Total Cell Density TCD ([5]; day 3): 7.9 E5/ml
- Viabil. ([5]; day 3): 96%
- Viable Cell Density (VCD) ([5]; day 3): 7.6 E5/ml
- Total Cell Density TCD ([5]; day 5): 45.2 E5/ml
- Viabil. ([5]; day 5): 96%
- Viable Cell Density (VCD) ([5]; day 5): 43.3 E5/ml
- Total Cell Density TCD ([5]; day 7): 41.1 E5/ml
- Viabil. ([5]; day 7): 83%
- Viable Cell Density (VCD) ([5]; day 7): 34.3 E5/ml
- Total Cell Density TCD ([5]; day 9): 34.7 E5/ml
- Viabil. ([5]; day 9): 73%
- Viable Cell Density (VCD) ([5]; day 9): 25.2 E5/ml

SMILES: O=C(O)CCC(=O)C(=O)O [α-Keto-glutarate]
- Viabil. ([2]; day 0, fed-batch): 91%
- Viabil. ([2]; day 2, fed-batch): 97%
- Viabil. ([2]; day 5, fed-batch): 97%
- Viabil. ([2]; day 8, fed-batch): 95%
- Sp. Gluc cons. ([4]; day 0): 94
- Sp. NH4 prod ([4]; day 0): 100 % of control
- TCD ([4]; day 0): 100 % of control
- VCD ([4]; day 0): 100 % of control
- Viabil. ([4]; day 0): 94%
- Sp. Gluc cons. ([4]; day 3): 98
- Sp. Lactate prod. ([4]; day 3): 70 % of control
- Sp. NH4 prod ([4]; day 3): 94 % of control
- TCD ([4]; day 3): 94 % of control
- VCD ([4]; day 3): 103 % of control
- Viabil. ([4]; day 3): 96%
- Sp. Gluc cons. ([4]; day 5): 98
- Sp. Lactate prod. ([4]; day 5): 72 % of control
- Sp. NH4 prod ([4]; day 5): 94 % of control
- TCD ([4]; day 5): 103 % of control
- Viabil. ([4]; day 5): 93%
- Sp. Gluc cons. ([4]; day 7): 95
- Sp. Lactate prod. ([4]; day 7): 72 % of control
- Sp. NH4 prod ([4]; day 7): 95 % of control
- TCD ([4]; day 7): 96 % of control
- VCD ([4]; day 7): 99 % of control
- Viabil. ([4]; day 7): 90%
- Sp. Gluc cons. ([4]; day 9): 109
- Sp. Lactate prod. ([4]; day 9): 79 % of control
- Sp. NH4 prod ([4]; day 9): 103 % of control
- TCD ([4]; day 9): 92 % of control
- VCD ([4]; day 9): 92 % of control
- Viabil. ([4]; day 9): 93%
- Viabil. ([5]; day 0): 96%
- Viabil. ([5]; day 3): 93%
- Viabil. ([5]; day 5): 96%
- Viabil. ([5]; day 7): 84%
- Viabil. ([5]; day 9): 67%
